PubChem BioAssay (NCI)
“And” between values parts separate entries of the source, which are not always exact repeats. Equal values may be shown once.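 All cell lines were grown in 96-well plates and treated with compound for 48 hours. Here, GI50 denotes the concentration required for 50% inhibition of growth. At the TGI there is no net growth.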 Where a SMILES comes first, the peptide text is derived from it. The star is where a group is joined. Cbz = O=C(OCc1ccccc1)*; Boc = CC(C)(C)OC(=O)*; OBn = c1ccc(CO*)cc1

Tests used:
Assay in all cases: DTP human tumour cell line panel, 48 h
UACC-257 melanoma = tested on: UACC-257 melanoma
IGROV1 ovarian = tested on: IGROV1 ovarian
SF-268 CNS = tested on: SF-268 CNS
EKVX NSCLC = tested on: EKVX NSCLC
BT-549 breast = tested on: BT-549 breast
ACHN renal = tested on: ACHN renal
NCI-H23 lung = tested on: NCI-H23 lung
HL-60(TB) leukemia = tested on: HL-60(TB) leukemia
SK-MEL-2 melanoma = tested on: SK-MEL-2 melanoma
MDA-N = tested on: MDA-N
PC-3 prostate = tested on: PC-3 prostate
SNB-75 CNS = tested on: SNB-75 CNS
KM12 colon = tested on: KM12 colon
NCI/ADR-RES ovarian = tested on: NCI/ADR-RES ovarian
A549 NSCLC = tested on: A549 NSCLC
MDA-MB-435 = tested on: MDA-MB-435
SK-MEL-28 melanoma = tested on: SK-MEL-28 melanoma

Compound	TGI (UACC-257 melanoma) [µM]	TGI (IGROV1 ovarian) [µM]	TGI (SF-268 CNS) [µM]	TGI (EKVX NSCLC) [µM]	TGI (BT-549 breast) [µM]	TGI (ACHN renal) [µM]	TGI (NCI-H23 lung) [µM]	TGI (HL-60(TB) leukemia) [µM]	TGI (SK-MEL-2 melanoma) [µM]	TGI (MDA-N) [µM]	TGI (PC-3 prostate) [µM]	TGI (SNB-75 CNS) [µM]	TGI (KM12 colon) [µM]	TGI (NCI/ADR-RES ovarian) [µM]	TGI (A549 NSCLC) [µM]	TGI (MDA-MB-435) [µM]	TGI (SK-MEL-28 melanoma) [µM]	GI50 (UACC-257 melanoma)	GI50 (IGROV1 ovarian)
CN(Cc1cnc2nc(N)nc(N)c2n1)c1ccc(C(=O)NC2CCCCC2)cc1	> 100	45.6	> 100	> 100	> 100	47.8	> 100	> 100	> 100	> 100	46	65.4	83.2	> 100					
COC(=O)[C@H]1[C@H](OC(=O)[C@@H](OC)c2ccccc2)ON2CC[C@@H](OC(=O)c3ccccc3)[C@H]12	> 100	> 100	> 100	> 100		25.6	> 100	> 100	> 100	> 100	> 100	65.1	> 100	> 100	> 100	> 100	> 100		
CC1C2CC(CC2=O)C1(C)C (stereo not given)	> 100	> 100	> 100	> 100	> 100	> 100	> 100	> 100		> 100	> 100	> 100	> 100		> 100	> 100	> 100		
COC(=O)C1CCCCCCCCCCC12SCCCS2 (stereo not given)	40.2	39.1	56.5	35.6		40.2	> 100		41.9	> 100	50	81.2	36	43.1	36.7	36.2	36.1		
O=C(CC(C(=O)c1ccsc1)c1cccs1)c1ccsc1 (stereo not given)	> 100	> 100	> 100	> 100		> 100	> 100	> 100	> 100	> 100	> 100	> 100	> 100	> 100	> 100	> 100	> 100		
COc1ccc(-n2c(-c3ccccc3)cc(-c3cccs3)c2-c2cccs2)cc1	> 100	> 100	> 100	> 100		> 100	95.7					> 100	> 100	> 100	> 100	> 100	> 100		
c1ccc2c(c1)SCCCSCCCS2	> 100	> 100	> 100	> 100	> 100		> 100	74.5		> 100	> 100	> 100	> 100	> 100	> 100	> 100	> 100		
Nc1nc(SCC(=O)c2ccccc2)nc2nc3c(c(-c4ccccc4)c12)CCCC3	> 100		61.5	> 100	> 100	> 100	> 100	> 100	> 100	> 100		78.6	> 100	> 100	> 100	> 100	61.9		
Cc1oc2nc(N(C)C)n3c(C)nnc3c2c1C	> 100	> 100	> 100	> 100	> 100	> 100	> 100					> 100	> 100	> 100	> 100	> 100	> 100		
COc1ccc(/C=N/Nc2nc3ccccc3c(=O)n2-c2ccccc2)cc1	> 100	> 100	> 100	> 100		> 100	> 100	> 100	> 100	> 100	> 100	> 100	> 100	> 100	> 100	> 100	> 100		
COc1ccc(-c2c(C(=O)Nc3ccccc3)c(-c3ccccc3)n(C3OC(CO)C(O)C(O)C3O)c(=S)c2C#N)cc1 (stereo not given)	> 100	> 100	> 100	> 100	> 100	> 100	> 100	> 100		> 100	> 100		> 100	> 100	> 100	> 100	> 100		
O=C1NCC2=C1CCC1c3ccccc3CCN21 (stereo not given)	> 100	> 100	> 100	> 100		> 100	> 100	> 100	> 100			> 100	> 100		> 100		> 100		
c1cc(-c2ccc(Oc3ccc(-c4ccncc4)cc3)cc2)ccn1	> 68.3	> 100	> 100	> 67.1	> 59.7	> 100	> 34	11.1	> 100	> 100	> 100	> 73.7	> 27.4	> 90.9	> 100		> 95.1		
O=C(O)c1ccccc1/C=C1\Cc2ccc3c(c2C1=O)CCCC3	68.4	> 100	> 100	> 100	> 100	> 100	75.4	62.3	88.7			86	> 100	> 100	> 100	> 100	> 100		
CSC(=S)Nc1cc(C)ccn1	> 100	58	> 100	> 100		> 100	> 100	> 100	> 100	> 100	> 100	> 100	> 100	> 100	> 100	> 100	> 100		
COc1ccc(OC)c(CC(=O)c2ccc(O)c(C(=O)NCCc3ccc(F)cc3)c2)c1	44.8	18.1	25	36.2	38.5	56.9	14.2	7.29	12.3			6.9	13.9	8.79	37.6		> 100		
C[C@H]1ON2CCC[C@@H]2[C@@H]1C(=O)N1C2CC3CCC2(CS1(=O)=O)C3(C)C (stereo not given in full)	> 100	> 100	> 100	> 100		> 100	> 100	26.6	> 100	> 100	> 100	> 100	> 100	> 100	> 100	> 100	> 100		
c1ccc(NC2(c3nnnn3C3CCCCC3)CCNCC2)cc1	30.6	> 100	> 100	79.7		52.6	52.4	31.5				32.7	31.3	> 100	> 100	38	32.5		
COC(=O)C(CCCCNC(=O)OCc1ccccc1)NC(=O)C(CCC(=O)OCc1ccccc1)NC(=O)OC(C)(C)C (stereo not given) (Boc-Glu(OBn)-Lys(Cbz)-OMe; configuration not given here)		> 100	> 100	> 100	> 100	> 100	> 100	> 100		> 100	> 100	> 100	> 100	> 100	> 100	> 100	> 100		
O=C1C2=Cc3ccccc3CCN2c2ccc([N+](=O)[O-])cc21	> 100	> 100	> 100	> 100		> 100	> 100	> 100		> 100	> 100	> 100	> 100	> 100	> 100	> 100	> 100		
CC1(C)CC(C2CC(C)(C)CC(C)(C)[C@H]2O)[C@@H](O)C(C)(C)C1 (stereo not given in full)	> 100	> 100	> 100	> 100		> 100	> 100	> 100					> 100		> 100		> 100		
COC1(CCO)CC=CCC1(CCO)OC (stereo not given)	> 100	> 100	> 100	> 100	> 100	> 100		> 100	> 100	> 100	> 100	> 100	> 100	> 100	> 100		> 100		
C=C1C(=O)OC2C3C(=C)[C@@H](OC(C)=O)CC3C(C)=CC(OC(=O)C(C)(O)C(C)OC(C)=O)[C@@H]12 (stereo not given in full)	23.2	21.3	37.9	30.2	26.7	24.8	27.3	5.57	20.6	18.5	30.7	28.4	28.5		77.8	28.3	27.2		
COc1ccc2c(c1)CC[C@@H]1C2CC[C@]2(C)C(=O)N(C)C(=O)CC12 (stereo not given in full)	> 100	> 100	> 100	> 100	> 100	> 100	> 100	> 100		> 100	> 100	> 100	> 100		> 100	> 100	> 100		
Cc1c(/C=N\NC(=S)N(C)CCN(C)C(=S)N/N=C\c2c(C)n(C)n(-c3ccccc3)c2=O)c(=O)n(-c2ccccc2)n1C	> 100		> 100	> 100	> 100	> 100	> 100		> 100		> 100	> 100	> 100	> 100	> 100	> 100			
CN(C)c1ccc(C=Nc2ccc(-c3nc4ccccc4o3)cc2)cc1	72.5	> 100	> 100	87.1	> 100	> 100	> 100	69.1	83.1		97.9	> 100	> 100	> 100	> 100	> 100	> 100		
COc1cc(-c2c(C(C)=O)c(-c3ccccc3)n(C3OC(COC(C)=O)C(OC(C)=O)C(OC(C)=O)C3OC(C)=O)c(=S)c2C#N)ccc1O (stereo not given)	> 100	> 100	> 100	> 100	82.4	> 100	> 100			> 100	> 100		> 100	> 100	> 100	> 100	> 100	> 100 µM and 34.9 µM	31.8 µM and > 100 µM
O=C1c2cc([N+](=O)[O-])cnc2S(=O)(=O)N1c1ccc(Oc2ccccc2)cc1		> 100		> 100	> 100	> 100	> 100	> 100	> 100		> 100	> 100	> 100	> 100	> 100	> 100	> 100		
N#Cc1c(-c2ccccc2)cc(Nc2ccc(F)cc2)n2c1nc1ccccc12	8.78	> 100	> 62.1	> 29.1	> 25.2	10.6	> 27.4	> 100	4.35		4.97	6.76	> 100	13	> 100	> 100	> 100		
COC(=O)C(NC(=O)C12CCC(C)(C(=O)O1)C2(C)C)c1cc(C(C)(C)C)c(O)c(C(C)(C)C)c1 (stereo not given)		> 100	> 100	> 100	> 100	> 100	> 100	32.1	> 100		> 100	> 100	> 100	> 100	> 100	> 100	> 100		
